Measurements as given in patent EP1238058B1, “USE OF COLOSTRININ, C[…] AND ANALOGS THEREOF TO PROMOTE NEURAL CELL DIFFERENTIATION” (THE UNIVERSITY OF TEXAS SYSTEM, priority 1999, dated 2001).

Tested on: medullary pheochromocytoma (PC 12) cells
Test: PC12 cell differentiation (morphology) assay
Assay type: cell-based
Conditions: TPA 10 ng per ml, negative control
Procedure: Cells: PC12 cell line derived from medullary pheochromocytoma cells were used to undertake studies described bellow. PC 12 cells were obtained from the American Type Culture Collection and maintained in RPMI-1640 supplemented with 10% fetal bovine serum (HYCLONE Inc), penicillin (100 U/ml) and streptomycin (100 µg/ml).
Methods: To evaluate the effect of colostrum, colostrinin and its component peptides on cell differentiation 3 x 10^4 logarithmically replicating (70% confluence) PC 12 cells were seeded in 24 x well plates and cells were allowed to adhere and grow for 24 hours. Serum containing media were aspirated and replaced for serum-free RPMI containing appropriate amount of antibiotics. In four parallel, increasing concentrations (0.1, 1, 10 and 100 µg per ml) of colostrum, colostrinin and its component peptides were added directly into the media and incubated at 37°C. As a positive control, nerve growth factor (NGF) 7S (Gibco-BRL) was used at 100 ng per ml concentration (Chao et al., Cell, 68, 995-997 (1992); and Marshall et al., Cell, 80, 179-185 (1995)). Phorbol 12-myristate 13-acetate (TPA: 10 ng per ml) was used as a negative control. Eight hours later the media were changed and RPMI-1640 was added containing 1% or 10% fetal bovine serum. The cultures were microscopically investigated 2nd, 4th and 6th days after treatment. […]

Phorbol 12-myristate 13-acetate [TPA]
background level of differentiation: less than 0.01%
